Data as given in patent publication US20190307843A1, “SINGLE DOSE METHODS FOR PREVENTING AND TREATING FUNGAL INFECTIONS” (Cidara Therapeutics, Inc., priority 2016, published 2019).
In brackets after ≈: the same amount, converted by molar mass. Where two headings read alike, the source gives them in different places.

How the values were obtained:
[1] = tested on: Candida auris strains; assay: Candida auris antifungal susceptibility testing (CLSI M27-A3), 38 strains; assay type: cell-based; conditions: for MIC: Candidozyma auris
[2] = tested on: C. albicans SC-5314 biofilms; assay: Adhesion phase biofilms (prevention), XTT metabolic activity and CSLM; assay type: cell-based, Candida albicans

With `OC(Cn1cncn1)(Cn1cncn1)c1ccc(F)cc1F` [fluconazole] the MIC ([1]; 24 h, strain 1 VPCI 669/P/12) was > 128 µg/mL, the MIC ([1]; 24 h, strain 2 VCPI 671/P/12) was > 128 µg/mL and the MIC ([1]; 24 h, strain 3 VCPI 674/P/12) was > 128 µg/mL. For the same compound, the MIC ([1]; 24 h, strain 4 VCPI 683/P/12) was > 128 µg/mL, the MIC ([1]; 24 h, strain 5 VCPI 692/P/12) was > 128 µg/mL and the MIC ([1]; 24 h, strain 6 VCPI 712/P/12) was > 128 µg/mL. For the same compound, the MIC ([1]; 24 h, strain 7 VCPI 471/P/13) was > 128 µg/mL, the MIC ([1]; 24 h, strain 8 VCPI 475/P/13) was > 128 µg/mL and the MIC ([1]; 24 h, strain 9 VCPI 478/P/13) was > 128 µg/mL. The MIC ([1]; 24 h, strain 10 VCPI 479/P/13) was > 128 µg/mL, the MIC ([1]; 24 h, strain 11 VCPI 480/P/13) was > 128 µg/mL and the MIC ([1]; 24 h, strain 12 VCPI 482/P/13) was > 128 µg/mL. The MIC ([1]; 24 h, strain 13 VCPI 483/P/13) was > 128 µg/mL, the MIC ([1]; 24 h, strain 14 VCPI 1130/P/13, 24 h, read-out: MIC) was 32 µg/mL (≈ 104 µM) and the MIC ([1]; 24 h, strain 15 VCPI 1132/P/13) was 128 µg/mL (≈ 418 µM). For the same compound, the MIC ([1]; 24 h, strain 16 VCPI 1133/P/13) was > 128 µg/mL, the MIC ([1]; 24 h, strain 17 VCPI 105/P/14) was 128 µg/mL (≈ 418 µM) and the MIC ([1]; 24 h, strain 18 VCPI 107/P/14, 24 h, read-out: MIC) was 64 µg/mL (≈ 209 µM). The MIC ([1]; 24 h, strain 19 VCPI 510/P/14) was > 128 µg/mL, the MIC ([1]; 24 h, strain 20 VCPI 511/P/14) was 128 µg/mL (≈ 418 µM) and the MIC ([1]; 24 h, strain 21 VCPI 512/P/14, 24 h, read-out: MIC) was 16 µg/mL (≈ 52.2 µM). For the same compound, the MIC ([1]; 24 h, strain 22 VCPI 513/P/14) was > 128 µg/mL, the MIC ([1]; 24 h, strain 23 VCPI 514/P/14) was > 128 µg/mL and the MIC ([1]; 24 h, strain 24 VCPI 250/P/14, 24 h, read-out: MIC) was 64 µg/mL (≈ 209 µM). For the same compound, the MIC ([1]; 24 h, strain 25 VCPI 265/P/14) was > 128 µg/mL, the MIC ([1]; 24 h, strain 26 VCPI 266/P/14) was > 128 µg/mL and the MIC ([1]; 24 h, strain 27 VCPI 462/P/14) was > 128 µg/mL. The MIC ([1]; 24 h, strain 28 VCPI 463/P/14) was > 128 µg/mL, the MIC ([1]; 24 h, strain 29 VCPI 467/P/14) was > 128 µg/mL and the MIC ([1]; 24 h, strain 30 VCPI 471a/P/14) was > 128 µg/mL. For the same compound, the MIC ([1]; 24 h, strain 31 VCPI 478/P/14) was > 128 µg/mL, the MIC ([1]; 24 h, strain 32 VCPI 518/P/14) was > 128 µg/mL and the MIC ([1]; 24 h, strain 33 VCPI 550/P/14) was > 128 µg/mL. The MIC ([1]; 24 h, strain 34 VCPI 714/P/14) was > 128 µg/mL, the MIC ([1]; 24 h, strain 35 VCPI 717/P/14, 24 h, read-out: MIC) was 4 µg/mL (≈ 13.1 µM) and the MIC ([1]; 24 h, strain 36 VCPI 1060/P/14) was > 128 µg/mL. The MIC ([1]; 24 h, strain 37 VCPI 74/P/15) was > 128 µg/mL, the MIC ([1]; 24 h, strain 38 VCPI 213/P/15) was > 128 µg/mL and the MIC ([1]; 48 h, strain 1 VPCI 669/P/12) was > 128 µg/mL. The MIC ([1]; 48 h, strain 2 VCPI 671/P/12) was > 128 µg/mL, the MIC ([1]; 48 h, strain 3 VCPI 674/P/12) was 128 µg/mL (≈ 418 µM) and the MIC ([1]; 48 h, strain 4 VCPI 683/P/12) was > 128 µg/mL. The MIC ([1]; 48 h, strain 5 VCPI 692/P/12) was > 128 µg/mL, the MIC ([1]; 48 h, strain 6 VCPI 712/P/12) was 128 µg/mL (≈ 418 µM) and the MIC ([1]; 48 h, strain 7 VCPI 471/P/13) was > 128 µg/mL. The MIC ([1]; 48 h, strain 8 VCPI 475/P/13, 48 h, read-out: MIC) was 64 µg/mL (≈ 209 µM), the MIC ([1]; 48 h, strain 9 VCPI 478/P/13) was 128 µg/mL (≈ 418 µM) and the MIC ([1]; 48 h, strain 10 VCPI 479/P/13) was 128 µg/mL (≈ 418 µM). The MIC ([1]; 48 h, strain 11 VCPI 480/P/13) was > 128 µg/mL, the MIC ([1]; 48 h, strain 12 VCPI 482/P/13) was > 128 µg/mL and the MIC ([1]; 48 h, strain 13 VCPI 483/P/13) was 128 µg/mL (≈ 418 µM). For the same compound, the MIC ([1]; 48 h, strain 14 VCPI 1130/P/13, 48 h, read-out: MIC) was 64 µg/mL (≈ 209 µM), the MIC ([1]; 48 h, strain 15 VCPI 1132/P/13) was 128 µg/mL (≈ 418 µM) and the MIC ([1]; 48 h, strain 16 VCPI 1133/P/13) was > 128 µg/mL. For the same compound, the MIC ([1]; 48 h, strain 17 VCPI 105/P/14) was 128 µg/mL (≈ 418 µM), the MIC ([1]; 48 h, strain 18 VCPI 107/P/14) was > 128 µg/mL and the MIC ([1]; 48 h, strain 19 VCPI 510/P/14) was > 128 µg/mL. For the same compound, the MIC ([1]; 48 h, strain 20 VCPI 511/P/14) was > 128 µg/mL, the MIC ([1]; 48 h, strain 21 VCPI 512/P/14) was > 128 µg/mL and the MIC ([1]; 48 h, strain 22 VCPI 513/P/14) was > 128 µg/mL. For the same compound, the MIC ([1]; 48 h, strain 23 VCPI 514/P/14) was > 128 µg/mL, the MIC ([1]; 48 h, strain 24 VCPI 250/P/14) was > 128 µg/mL and the MIC ([1]; 48 h, strain 25 VCPI 265/P/14) was > 128 µg/mL. For the same compound, the MIC ([1]; 48 h, strain 26 VCPI 266/P/14) was > 128 µg/mL, the MIC ([1]; 48 h, strain 27 VCPI 462/P/14) was > 128 µg/mL and the MIC ([1]; 48 h, strain 28 VCPI 463/P/14) was > 128 µg/mL. The MIC ([1]; 48 h, strain 29 VCPI 467/P/14) was > 128 µg/mL, the MIC ([1]; 48 h, strain 30 VCPI 471a/P/14) was > 128 µg/mL and the MIC ([1]; 48 h, strain 31 VCPI 478/P/14) was > 128 µg/mL. For the same compound, the MIC ([1]; 48 h, strain 32 VCPI 518/P/14) was > 128 µg/mL, the MIC ([1]; 48 h, strain 33 VCPI 550/P/14) was > 128 µg/mL and the MIC ([1]; 48 h, strain 34 VCPI 714/P/14) was > 128 µg/mL. The MIC ([1]; 48 h, strain 35 VCPI 717/P/14) was > 128 µg/mL, the MIC ([1]; 48 h, strain 36 VCPI 1060/P/14) was > 128 µg/mL and the MIC ([1]; 48 h, strain 37 VCPI 74/P/15) was > 128 µg/mL. For the same compound, the MIC ([1]; 48 h, strain 38 VCPI 213/P/15) was > 128 µg/mL, the “number of resistant isolates” value ([1]; of 38 C. auris isolates) was 38 and the thickness of biofilms ([2]; fluconazole) was “no effect on biofilm thickness”. The “biofilm formation by metabolic activity (XTT)” value ([2]; fluconazole 1 and 4 μg/ml, 24 h) was “did not inhibit biofilm formation”.
